In experiment [1] the test system is human malignant melanoma cell line A-375. The experiment in a line: CellTiterBlue cell viability assay, malignant melanoma cell line A-375. The format is cell-based. To be noted: for IC50: Homo sapiens, A-375 cells, 24 h treatment, CellTiterBlue, read-out: IC50 against A-375 cells. The protocol: (§1) The crude extracts were initially tested in vitro against 5 human cancer cell lines: colorectal adenocarcinoma cell line HT-29 (DSMZ, Braunschweig, Germany), malignant melanoma cell line A-375 (CLS, Eppelheim, Germany), colon cancer cell line HCT-116 (DSMZ), lung carcinoma cell line A-549 (CLS, Eppelheim, Germany), human breast cancer line MB-231 (CLS), and the non-cancerous human keratinocyte line HaCaT (CLS) at a concentration of 100 µg/mL. The antitumoral activity of the crude extracts was evaluated by monitoring the metabolic activity using the CellTiterBlue Cell Viability Assay (Promega, Mannheim, Germany). HT-29 and HaCaT cells were cultivated in RPMI medium, A-549 and MB-231 cells in DMEM: Ham’s F12 medium (1:1) supplemented with 15 mM HEPES and A-375 and HCT-116 cells in DMEM medium supplemented with 4.5 g/L D-Glucose and 110 mg/L sodium pyruvate. All media were supplemented with L-Glutamine, 10% fetal bovine serum, 100 U/mL penicillin, and […] streptomycin. The cultures were maintained at 37 °C under a humidified atmosphere and 5% CO2. The cell lines were transferred every 3 or 4 days. For experimental procedure, the cells were seeded in 96 well plates at a concentration of 10,000 cells per well. A stock solution of 40 mg/mL in DMSO was prepared of each extract. After 24 h incubation, the medium was removed from the cells and 100 µL fresh medium containing the test samples was added. Each sample was prepared in duplicate once. Doxorubicin as a standard therapeutic drug was used as positive control, 0.5% DMSO and growth media were used as controls. Following compound addition, plates were cultured at 37 °C for 24 h. Afterwards, the assay was performed according to the manufacturer’s instructions and measured using the microplate reader Tecan Infinite M200 at excitation 560 nm and emission of 590 nm. For determination of IC50 values, a dilution series of the extracts was prepared and tested, as described before for the crude extract.
For orientation: Alamar Blue is a resazurin reagent that responds to reducing activity.

Experiment [2] has as its system non-cancerous human keratinocyte cell line HaCaT. The experiment can be described thus: CellTiterBlue cell viability assay, non-cancerous keratinocyte line HaCaT (general toxicity). The experiment is classed as cell-based. To be noted: HaCaT cells, 24 h treatment, read-out: IC50 against HaCaT cells. The protocol: as §1
For experiment [3], the system named is Plasmodium falciparum 3D7. Details: method as in PMID 28901329. Particulars: cited from earlier work.
Another experiment has as its system cancer cell lines. Further details: method as in PMID 28901329. Particulars: cited from earlier work.

As for `CC(=O)/C=C/[C@@H]1[C@H]2C(C)=C[C@H]3C[C@@H](C)CC[C@@H]3[C@@]2(C)C(=O)[C@@]12C(=O)[C@@H](CO)N(C)C2=O` [Compound 3, Pyrenosetin C], the IC50 (usually the concentration at which inhibition is half-maximal) in experiment [1] came out at 140 µM; in experiment [2], 143 µM.

With `COc1cccc2c1C(=O)c1c(O)c3c(c(O)c1C2=O)C[C@@](O)(C(=O)CO)C[C@@H]3O[C@H]1C[C@H](N)[C@H](O)[C@H](C)O1` [Doxorubicin, reference compound], the IC50 worked out at 0.6 µM in experiment [1] and 22.1 µM in experiment [2].

Turning to wakodecaline A, in experiment [3], the antimalarial activity entry is “moderate antimalarial activity”. The “activity against cancer cell lines” value with cancer cell lines is “inactive”.

Regarding `CC1=CC2CC(C)CCC2C2(C)C(=O)C3(C(=O)C(CO)N(C)C3=O)C(C=CC(C)O)C12` (stereo not drawn) [Compound 1, Pyrenosetin A], the IC50 in experiment [1] turned out to be 2.8 µM; in experiment [2], 4.2 µM.

For the compound `CC(=O)/C=C/[C@H]1[C@H](C(=O)N(C)[C@H](CO)C(=O)O)C(=O)[C@@]2(C)[C@@H]1C(C)=C[C@H]1C[C@@H](C)CC[C@@H]12` [wakodecaline B], the antimalarial activity result in experiment [3] is “moderate antimalarial activity”. Besides, in the experiment on cancer cell lines, the “activity against cancer cell lines” value is “inactive”.

Turning to `CC1=C[C@H]2C[C@@H](C)CC[C@@H]2[C@@]2(C)C(=O)[C@@]3(C(=O)[C@@H](CO)N(C)C3=O)[C@H](/C=C/[C@@H](C)O)[C@@H]12` [Compound 2, Pyrenosetin B], the “selectivity index (IC50 value against HaCaT cells / IC50 value against A-375 cells)” value in experiment [1] (HaCaT vs A-375) is given as “around 5.6”. The IC50 in experiment [1] worked out at 6.3 µM; in experiment [2], 35 µM.

On to `C/C=C/C=C/[C@H]1C(C)=C[C@H]2C[C@@H](C)CC[C@@H]2[C@@]1(C)/C(O)=C1/C(=O)[C@@H](CO)N(C)C1=O` [Compound 4, Phomasetin], for which the results for the IC50 in experiment [1] and in experiment [2] were 37.3 µM and 45 µM, respectively.

These data come from PMC7024310, “Pyrenosetins A–C, New Decalinoylspirotetramic Acid Derivatives Isolated by Bioactivity-Based Molecular Networking from the Seaweed-Derived Fungus Pyrenochaetopsis sp. FVE-001” (Marine Drugs, 2020).
